Results on six compounds are retold here after paper PMC12557438, “Thiadiazino-indole, thiadiazino-carbazole and benzothiadiazino-carbazole dioxides: synthesis, physicochemical and early ADME characterization of representatives of new tri-, tetra- and pentacyclic ring systems and their intermediates” (Beilstein Journal of Organic Chemistry, 2025).

≈ marks a conversion by molar mass, not a printed value. Where two headings read alike, the source gives them in different places. Bounds are passed on as bounds.

The kinetic solubility is solubility judged after dilution from a stock solution rather than from solid.

Data set [1] in a line: Determination of the capacity factor (logk) by RP-HPLC. It is filed as physicochemical. To be noted: reversed-phase chromatographic capacity factor, eluent pH 7.0. The procedure: Determination of the capacity factor. […] The same analytical method was used with modified eluents: eluent A was 20 mM triethylamine with phosphoric acid (pH 7.0), and eluent B was acetonitrile without additives. The method time was slightly extended, with a 1-minute longer gradient, resulting in an 8-minute program. The capacity factor was calculated with Equation 3: […]
where k is the capacity factor, tR is the retention time (min) of the compounds and t0 is the dead-time of the column (min).

Data set [2] in a line: Kinetic aqueous solubility assay. Format: physicochemical. Also noted: key to Kinetic solubility (no value): –: Compounds with no value were under the detection limit. To be noted: for Kinetic solubility (no value): PBS pH 6.5, 2 hours, dash = under the detection limit; for solubility kinetic at 2 h: PBS buffer, pH 6.5, aqueous buffer, kinetic from dmso stock. The procedure:
(§1) Kinetic aqueous solubility assay. All compounds were dissolved in DMSO to make stock solutions at 10 mM concentration. […] 5 μL of the stock solutions was pipetted into a 96-well plate containing 495 μL PBS (pH 6.5) in each well to achieve 100 μM target concentration (1% DMSO). […] The plate was then sealed and shaken for 2 hours at room temperature. Each compound was investigated in 3 replicates. After 2 hours, the samples were filtered on a MultriscreenHTS filter plate (MSSLBPC, polycarbonate membrane, Merck KGaA, Darmstadt, Germany) by a Millipore Vacuum Manifold (Merck KGaA, Darmstadt, Germany). Before analyzing, 20 vol % acetonitrile was added to each well to avoid sample precipitation during HPLC analysis.
(§2) Analytical methods. […] For a 7-minute long gradient program, eluents A (0.1% formic acid in water) and B (0.1% formic acid in acetonitrile) were used as follows: initial conditions with 30% B were kept for 1 minute, then 90% B was achieved within 3 minutes, kept for further 1 minute, finally the initial condition was adjusted and equilibrated for further 2 minutes. 5-Point calibration series were measured from each compound resulting in R^2 ≈ 0.9990–0.9999.

A short description of data set [3]: DMSO solubility (stock solution preparation). It is filed as physicochemical. The procedure: as §1
Data set [4] is described as follows: In vitro gastrointestinal permeability assay (GI PAMPA). Format: in vitro ADME. The note with it: for Papp at 4 h, 100 µM: PAMPA; for GI PAMPA membrane retention / GI PAMPA penetration: donor pH 6.5, acceptor pH 7.4, 1% DMSO, 37 °C, 4 hours, mean of 3 replicates; for GI PAMPA membrane retention (MR) in words: wording of the text, outside the class key. Here is the method: In vitro gastrointestinal permeability assay. […] The artificial membrane was fabricated by dissolving ʟ-α-phosphatidylcholine (16 mg) and cholesterol (4 mg) in a solvent mixture of chloroform, hexane and dodecane (5/70/25 vol %). Each well of the PAMPA donor plate (MAIPNTR, PVDF membrane, Merck KGaA, Darmstadt, Germany) was coated with 5 μL lipid solution. Thereafter the donor plate was fitted into the acceptor plate (MSSACCEPTOR, Merck KGaA, Darmstadt, Germany) already containing 300 μL PBS (pH 7.4) solutions with 1% DMSO. Finally, 150 μL of the initial solutions was pipetted into the donor plate, the plate sandwich was covered with a wet paper tissue and with a plate lid to avoid evaporation, and the system was incubated at 37 °C for 4 hours. Then samples were taken from the donor and acceptor wells and analyzed along with the initial solutions by HPLC.
[1] Pe=−2.303/A⋅(t−τss)⋅(1/1+ra)⋅lg[−ra+(1+ra/1−MR)⋅cD(t)/cD(0)]
[2] MR=1−cD(t)/cD(0)−VAcA(t)/VDcD(0)
where A is the filter area (0.24 cm^2), t is the incubation time (s), τss is the time to reach steady-state (s), ra is the sink asymmetry ratio approximated with a value of 10^−14, VD and VA are the volumes in the donor (0.15 mL) and the acceptor phase (0.3 mL), cD(t) is the concentration of the compound in the donor phase at time point t (mol/L), cD(0) is the concentration of the compound in the donor phase at time point zero (initial solutions, mol/L), cA(t) is the concentration of the compound in the acceptor phase at time point t (mol/L), cA(0) is the concentration of the compound in the acceptor phase at time point zero (mol/L).
as §2
In general terms: In PAMPA a lipid-coated filter parts donor from acceptor wells.

Data set [5] can be described thus: Metabolic stability assay in human liver microsome fractions. It is filed as in vitro ADME. The note with it: pH 7.4, pooled human liver microsomes, NADPH, 37 °C; for half-life at 10 µM: triplicate, read-out: HLM t1/2. Here is the method:
Metabolic stability assay in human liver microsome fractions. The metabolic stability of the test compounds was assessed in vitro using pooled liver microsome fractions derived from humans (Xenotech LLC). The assay was conducted in a 96-well plate format according to a standardized protocol, utilizing cofactor-supplemented incubation systems, mainly to mimic phase I oxidative metabolic pathways. Human liver microsome (HLM) fractions were thawed on ice and diluted in 0.05 M potassium phosphate buffer (pH 7.4) to a final protein concentration of 1.25 mg/mL. Test compounds were dissolved in DMSO to create stock solutions of 5 mM. The drug concentration in the final assays was 10 μM. The assay was performed in triplicate. Reaction mixtures containing the diluted HLM fractions and test compounds were pre-incubated for 5 minutes at 37 °C while shaking at 450 rpm. The reaction was initiated by adding the 0.05 M NADPH cofactor mixture to the wells (100 µL per well) for the “with cofactors” conditions or by adding phosphate buffer for the “without cofactors” control. Aliquots (100 µL) were taken at zero time and at pre-defined time points of 30 and 60 minutes and quenched with an equal volume of cold acetonitrile. The samples were centrifuged at 2600 RCF for 10 minutes to pellet proteins. Supernatants were transferred to LC vials and stored at −20 °C until LC–MS/MS analysis. The concentration of the parent compound remaining in each sample was determined using liquid chromatography coupled with tandem mass spectrometry (LC–MS/MS). The percentage of the remaining substrate was calculated relative to the time-zero sample. The natural logarithm of the percentage remaining was plotted against incubation time to determine the first-order elimination rate constant (k) using linear regression. The half-life (t₁/₂) was calculated using Equation 4: […]
Intrinsic clearance (Clint) was calculated and scaled to in vivo conditions using Equation 5:
[5] Clint=ln2/t1/2×liver weight (g)/standard body weight (kg)×incubation volume (mL)/HLM protein/well×HLM protein (mg)/gram of liver
where the HLM protein per gram of liver was equal to 25 and the liver weight per standard body was equal to 49. Testosterone was included as a positive control to confirm metabolic competence of the HLM fractions, with and without cofactors.
HPLC–MS analysis. The semi-quantitative determination of test compounds was carried out using a Waters Xevo G2-XS QToF mass spectrometer equipped with an electrospray ionization (ESI) source operating in positive ion mode. Chromatographic separation was performed on a Waters XBridgeTM Premier BEH C18 (3.5 μm, 4.6 × 150 mm) column maintained at 40 °C. The mobile phase consisted of water with 0.1% formic acid (A) and acetonitrile with 0.1% formic acid (B). The injection volume was 10 µL. The autosampler was maintained at 5 °C. The gradient elution program shown in Table 4 was applied at a constant flow rate of 1.0 mL/min.
The mass spectrometer operated in sensitivity mode with a capillary voltage of 3.0 kV, source temperature was 100 °C, and desolvation temperature was 350 °C. The cone gas flow was set to 0 L/h and desolvation gas flow to 800 L/h. LockSpray calibration was performed using leucine enkephalin as the reference compound (m/z 556.2771), introduced at 15 µL/min. Data acquisition was performed in MSE mode with alternating low collision energy (6 eV) and ramped high-energy collision dissociation (20–40 eV). The mass range was set from 50 to 1200 Da. Each function used a scan time of 0.5 s. Data were acquired in the continuum mode. Instrument mass accuracy calibration was verified using sodium formate. The system was controlled with a MassLynx v4.2 SCN996 software.
Background: Liver microsomes are a subcellular fraction often used to study metabolism.

[6] abbreviates: PBS pH 6.5, 100 µM target concentration (1% DMSO), 2 hours, room temperature, mean of 3 replicates, read-out: Kinetic solubility.
Setting [7] is: class in words, read-out: Kinetic solubility category.
[8] abbreviates: class in words, read-out: GI PAMPA permeability (Pe) category.
[9] abbreviates: colour key of Figure 5, read-out: Permeability category (Pe), colouring of Figure 5.

For `CC1=NN(C)S(=O)(=O)c2c(N/N=C3\CCCc4ccccc43)cccc21` [(E)-9a], the “logk (−) pH 7.0” value in data set [1] came to 0.653. Moreover, in data set [2] (room temperature), the “Kinetic solubility (no value)” value is on record as “–”. For the same compound, the “highest concentration achieved in DMSO” value in data set [3] is 1 mM.

Take `CN1N=C(c2ccccc2)c2cccc(N/N=C3\CCCc4ccccc43)c2S1(=O)=O` [(E)-9b]: the “logk (−) pH 7.0” value in data set [1] was found to be 0.695. Also, the “Kinetic solubility (no value)” value in data set [2] (room temperature) was “–”. In addition, the “highest concentration achieved in DMSO” value in data set [3] is recorded as 0.5 mM.

On to `CC1=NN(C)S(=O)(=O)c2c1ccc1c3c([nH]c21)CCCC3` [Compound 3e, 2,4-Dimethyl-2,7,8,9,10,11-hexahydro[1,2,3]thiadiazino[6,5-a]carbazole 1,1-dioxide], for which the “logk (−) pH 7.0” value in data set [1] is given as 0.516. Also, the kinetic solubility at 2 h in data set [2] (setting [6]) amounted to 51.4 ± 1.3 µM (≈ 15.6 µg/mL). The solubility (kinetic) at 2 h in data set [2] (setting [7]) was more than 30 µM. The Papp at 4 h, 100 µM in data set [4] (setting [8]) was less than 10 ×10⁻⁶ cm/s. Further, the Papp at 4 h, 100 µM in data set [4] (setting [9]) is less than 10 ×10⁻⁶ cm/s. Further, in data set [4], the “GI PAMPA membrane retention” value is 82.3 ± 0.8%, the “GI PAMPA penetration” value is recorded as 7.1 ± 1.7 10^−6 cm/s and the “GI PAMPA membrane retention (MR) in words” value is reported as “high”. Also, the half-life at 10 µM in data set [5] is 100 ± 23 min.

With `CC1=NN(C)S(=O)(=O)c2c(NN=C3CCCC3)cccc21` [Compound 7d], the “logk (−) pH 7.0” value in data set [1] came to 0.599. The values for the solubility (kinetic) at 2 h in data set [2] (setting [6]) and in data set [2] (setting [7]) were 46.9 ± 2.8 µM (≈ 14.4 µg/mL) and more than 30 µM, respectively. In addition, the Papp at 4 h, 100 µM in data set [4] (setting [8]) and in data set [4] (setting [9]) was less than 10 ×10⁻⁶ cm/s throughout. In addition, the “GI PAMPA membrane retention” value in data set [4] is on record as 93.3 ± 0.2%. Further, in data set [4], the “GI PAMPA penetration” value is recorded as 7.6 ± 2.9 10^−6 cm/s. In addition, in data set [4], the “GI PAMPA membrane retention (MR) in words” value is “high”. For the same compound, the CLint scaled at 10 µM in data set [5] (scaled to in vivo conditions (Equation 5), read-out: HLM Clint (converted)) is 1.34 mL/h/kg. In data set [5], the half-life at 10 µM was found to be 31 ± 3 min.

For the compound `CN1N=C(c2ccccc2)c2cccc(NN=C3CCCC3)c2S1(=O)=O` [Compound 7i], the “logk (−) pH 7.0” value in data set [1] is recorded as 0.661. For the same compound, the solubility (kinetic) at 2 h in data set [2] (setting [6]) stood at 2.2 ± 0.1 µM (≈ 0.811 µg/mL). For the same compound, the “highest concentration achieved in DMSO” value in data set [3] came to 0.5 mM.

Consider `CN1N=C(c2ccccc2)c2cccc(NN=C3CCCCC3)c2S1(=O)=O` [Compound 7j], for which the “logk (−) pH 7.0” value in data set [1] turned out to be 0.660. In addition, the solubility (kinetic) at 2 h in data set [2] (setting [6]) amounted to 2.8 ± 0.2 µM (≈ 1.07 µg/mL). The “highest concentration achieved in DMSO” value in data set [3] turned out to be 0.5 mM.
